Data published in patent publication US10053485B2, “Cytotoxic agents that preferentially target leukemia inhibitory factor (LIF) for the treatment of malignancies and as new contraceptive agents” (Evestra, Inc., priority 2015, dated 2018).
Read-outs that look alike come from different tables or passages of the source.

Key:
A549 (Lung cancer) = experiment: Short term (72 h) cytotoxicity assay; format: cell-based, human; settings: A549, 72 h cytotoxicity
U251 (Glioma) = experiment: Short term (72 h) cytotoxicity assay; format: cell-based, human; settings: U251, 72 h cytotoxicity
U87-MU (Glioma cells) = experiment: Short term (72 h) cytotoxicity assay; format: cell-based
[1] = system: unmodified MCF-7 human breast cancer cells; experiment: LIF specificity assay, unmodified cells; format: cell-based
[2] = system: LIF-overexpressing MCF-7 (MCF-7 LIF) human breast cancer cells; experiment: LIF specificity assay, LIF-overexpressing cells; format: cell-based
MDA-MB-231 (TNBC cells) = experiment: Short term (72 h) cytotoxicity assay; format: cell-based; settings: Homo sapiens; MDA-MB-231, 72 h cytotoxicity
[3] = system: IGROV-1 (Ovarian cancer cells); experiment: Short term (72 h) cytotoxicity assay; format: cell-based; settings: Homo sapiens; IGROV-1, 72 h cytotoxicity
[4] = system: T47D (ER+ PR+ Breast Cancer); experiment: Short term (72 h) cytotoxicity assay; format: cell-based; settings: Homo sapiens
[5] = system: MDM2 / P53 in MCF-7 cells; experiment: P53 / MDM2 levels in MCF-7 cells (FIG. 5); format: cell-based, human
[6] = system: Ishikawa (Endometrial Cancer); experiment: Short term (72 h) cytotoxicity assay; format: cell-based; settings: Homo sapiens
[7] = system: various cancer cells lines; experiment: Cytotoxicity assays in various cancer cell lines; format: cell-based; settings: in words
Procedure: Briefly, 5×10^3 cells were seeded in 96-well plates and incubated with compounds (0.0001-10 μmol/L) or dimethyl sulfoxide (DMSO; 0.02% v/v) for 24, 48, and 72 hours at 37° C. and cell viability was measured using a Fluoroscan plate reader.

[8] = system: human endometrial stromal cells (HESC); experiment: Decidualization assay, actin cytoskeleton by phalloidin staining; format: cell-based; settings: FIG. 3
Procedure: Decidualization studies: The above compounds were investigated originally for the treatment of endometriosis. The compounds were tested in a decidualization assay using human endometrial stromal fibroblast (HESC) cells. In preparation for the possibility of embryonic attachment, the stromal cells in the endometrium undergo extensive waves of proliferation, remodeling, and terminal differentiation that transforms the endometrium into an endocrine gland, called decidua. This transformation is called decidualization and it is under the control by ovarian hormones.
The level of apoptosis increases from the proliferative phase through menstrual cycle and peaks at menses. […] However if the cells are subjected to conditions that induce decidualization, stromal cells will begin to differentiate instead of undergoing apoptosis.
Briefly, human stromal endometrial cells were plated in the presence and absence of progesterone and allow undergoing decidualization. The cells treated with test compounds of different concentrations and stained for actin cytocketal morphology using phalloidin staining and monitored under fluorescent microscope.

[9] = system: human umbilical vein endothelial cells (HUVEC); experiment: Matrigel in vitro HUVECs tube formation assay (angiogenesis); format: cell-based; settings: 1 μM concentration, all measured time points
Procedure: Matrigel in vitro HUVECs tube formation assay: The tube formation assay was performed using 12-well plate coated with 100 μL Matrigel basement membrane matrix (BD Bioscience) per well and polymerized at 37° C. for 30 min. Human umbilical vascular endothelial cells (HUVECs) suspended in M199 medium containing 2% FBS were plated on the Matrigel at a density of 2×10^5 cells/well. […] After 8 h, the Matrigel-induced morphological changes were photographed and the extent of capillary tube formation was evaluated by measuring the total tube length per field.

[10] = system: PC3 (AR− Prostate Cancer); experiment: Short term (72 h) cytotoxicity assay; format: cell-based; settings: Homo sapiens, PC3, 72 h cytotoxicity
T47D breast cancer cells = experiment: Soft agar colony formation assay; format: cell-based, human
Procedure: Colonies of cancer cells formed in soft agar in the presence and absence of the testing compounds is a standard assay to interpret in-vitro tumorigenic potential in the basal layer. Agar was prepared by mixing 1% DNA grade agar melted and cooled to 40° C. with an equal volume of (2×) Dulbecco's Modified Eagle's Medium (DMEM) to obtain 0.5% agar that was dispersed in a 6-well plate and allowed to solidify. A total of 0.6% agar was prepared in RPMI medium and mixed together with T47D cells (0.5×10^6 cells/mL) and immediately plated on the basal layer in the presence or absence of testing compounds. The cultures were incubated at 37° C. in a CO2 incubator for 2 weeks, and colonies were stained with 0.005% crystal violet and observed under a light microscope.

[11] = system: MCF-7 (ER+ Breast Cancer); experiment: Short term (72 h) cytotoxicity assay; format: cell-based; settings: Homo sapiens, MCF7; MCF-7, 72 h cytotoxicity
[12] = system: Patient derived tumor (melanoma): p53, LIF, MDM2, pSTAT3, Ki67; experiment: Immunohistochemistry analysis of patient derived tumor; format: cell-based, human; settings: 10 nM and 1 uM for 5 days, FIG. 10
Procedure: Patient derived tumor (melanoma) was treated with the compounds at 10 nM and 1 uM for 5 days in RPMI medium and harvested on day 6 using established protocol and immunohistochemistry was performed for different antibodies including p53, LIF, MDM2, pSTAT3, Ki67.

LNCaP (AR+ Prostate) = experiment: Short term (72 h) cytotoxicity assay; format: cell-based
[13] = Homo sapiens, MCF7, cytotoxicity
[14] = Homo sapiens, MCF7, cytotoxicity, LIF-overexpressing MCF-7, read-out: MCF-7 LIF IC50

Molecule C#CC(F)(F)[C@]1(O)CCC2C3CCC4=CC(=O)CCC4=C3C(c3ccc(N(C)C)cc3)C[C@@]21C (stereo partly drawn) [EC352, 17α-(1,1-difluoro-2-propyn-1-yl)-17β-hydroxy-11β-[4-p-(dimethylamino)phenyl]estra-4,9-dien-3-one] has an IC50 (A549 (Lung cancer)) of 45 nM, an IC50 (U251 (Glioma)) of 40 nM and an IC50 (U87-MU (Glioma cells)) of 50 nM. For the same molecule, the IC50 ([1]; cytotoxicity) was over 10000 nM, the “Fold Change” value ([2]; MCF-7 vs. MCF-7 LIF cytotoxicity (specificity towards LIF)) was 0 and the IC50 ([2]; cytotoxicity, LIF-overexpressing MCF-7, read-out: MCF-7 LIF IC50) was over 10000 nM.

For C#CC(F)(F)[C@]1(O)CCC2C3CCC4=CC(=O)CCC4=C3C(c3ccc(C(C)(C)C)cc3)C[C@@]21C (stereo partly drawn) [EC357, 17α-(1,1-difluoro-2-propyn-1-yl)-17β-hydroxy-11β-[4-p-(t-butyl)phenyl]estra-4,9-dien-3-one], the IC50 (A549 (Lung cancer); Homo sapiens) was 35 nM, the melting point was 127 to 129 °C and the IC50 (U251 (Glioma); Homo sapiens, U-251) was 30 nM. The IC50 (U87-MU (Glioma cells); Glioma cell) was 35 nM.

In the case of C#CC(F)(F)[C@]1(O)CC[C@H]2[C@@H]3CCC4=CC(=O)CCC4=C3[C@@H](c3ccc(-c4c(C)cc(C)cc4C)cc3)C[C@@]21C [EC359, 17α-(1,1-difluoro-2-propyn-1-yl)-17β-hydroxy-11β-[4-p-(2,4,6-trimethylphenyl)phenyl]estra-4,9-dien-3-one], the IC50 (MDA-MB-231 (TNBC cells)) is reported as 30 nM, the IC50 (U87-MU (Glioma cells); Glioma cell) is reported as 10 nM and the IC50 [1, 13] is reported as 240 nM. The IC50 ([2]; Homo sapiens, MCF7, read-out: MCF-7 LIF IC50) was 30 nM and the IC50 [3] was 25 nM.

With C#CC(F)(F)[C@]1(O)CCC2C3CCC4=CC(=O)CCC4=C3C(c3ccc(C(=C)C)cc3)C[C@@]21C (stereo partly drawn) [EC358, 17α-(1,1-difluoro-2-propyn-1-yl)-17β-hydroxy-11β-[4-p-(1-methylethenyl)phenyl]estra-4,9-dien-3-one] the IC50 (MDA-MB-231 (TNBC cells)) was 40 nM, the IC50 (U87-MU (Glioma cells); Glioma cell) was 25 nM and the IC50 [1, 13] was 100 nM. For the same molecule, the IC50 [2, 14] was 50 nM and the IC50 [3] was 35 nM.

For C#CC(F)(F)[C@]1(O)CCC2C3CCC4=CC(=O)CCC4=C3C(c3ccc(C(C)=O)cc3)C[C@@]21C (stereo partly drawn) [EC332, 17α-(1,1-difluoro-2-propyn-1-yl)-17β-hydroxy-11β-[4-p-(acetyl)phenyl]estra-4,9-dien-3-one], the IC50 [4] was 200 nM, the IC50 (A549 (Lung cancer); Homo sapiens) was 75 nM and the “P53 levels / MDM2” value [5] was “restore P53 levels by inhibiting MDM2”. The IC50 [6] was 10 nM, the “IC50's in cytotoxicity assays” value [7] was “low nanomolar” and the IC50 (U251 (Glioma); Homo sapiens, U-251) was 40 nM. The IC50 (MDA-MB-231 (TNBC cells)) was 110 nM, the IC50 (U87-MU (Glioma cells); Glioma cell) was 90 nM and the “actin / alpha-smooth muscle mediated cytoskeletal disruption of fibroblast” value [8] was “cytoskeletal disruption”. The tube formation [9] was “complete abrogation”, the IC50 [10] was 300 nM and the “inhibition in the number of colonies formed” value (T47D breast cancer cells; 100 nM concentration, in words) was “complete inhibition”. For the same molecule, the inhibition at 0.005 µM (T47D breast cancer cells; Homo sapiens, T47D, 5 nM concentration, read-out: inhibition in the number of colonies formed) was 50%, the IC50 [11] was 45 nM and the “apoptosis, p53, MDM2, LIF mediated STAT3 phosphorylation (immunohistochemistry)” value [12] was “induce apoptosis and restore p53 by inhibiting MDM2 and LIF mediated STAT3 phosphorylation”. The IC50 (LNCaP (AR+ Prostate)) was 96 nM.

C#CC(F)(F)[C@]1(O)CCC2C3CCC4=CC(=O)CCC4=C3C(c3ccc(OC)cc3)C[C@@]21C (stereo partly drawn) [EC356, 17α-(1,1-difluoro-2-propyn-1-yl)-17β-hydroxy-11β-[4-p-(methoxy)phenyl]estra-4,9-dien-3-one] gave an IC50 (A549 (Lung cancer); Homo sapiens) of 40 nM, an IC50 (U251 (Glioma); Homo sapiens, U-251) of 45 nM and an IC50 (U87-MU (Glioma cells); Glioma cell) of 45 nM. It also gave an IC50 [1, 13] of 500 nM and an IC50 [2, 14] of 250 nM.

C#CC(F)(F)[C@]1(O)CCC2C3CCC4=CC(=O)CCC4=C3C(c3ccc(-n4ccnc4)cc3)C[C@@]21C (some centres unmarked) [EC351] showed a melting point of 175 to 178 °C and an IC50 (U251 (Glioma); Homo sapiens, U-251) of 500 nM.

Molecule C#CC(F)(F)[C@]1(O)CCC2C3CCC4=CC(=O)CCC4=C3C(c3ccc(S(=O)(=O)C4CC4)cc3)C[C@@]21C (stereo partly drawn) [EC361, 17α-(1,1-difluoro-2-propyn-1-yl)-17β-hydroxy-11β-[4-p-(cyclopropylsulfonyl)phenyl]estra-4,9-dien-3-one] has an IC50 (MDA-MB-231 (TNBC cells)) of 750 nM, an IC50 (U87-MU (Glioma cells); Glioma cell) of 230 nM and an IC50 [1, 13] of over 10000 nM. It also gave an IC50 [2, 14] of 500 nM and an IC50 [3] of 350 nM.

Work on C#CC(F)(F)[C@]1(O)CCC2C3CCC4=CC(=O)CCC4=C3C(c3ccc(C4CCCCC4)cc3)C[C@@]21C (stereo partly drawn) [EC360, 17α-(1,1-difluoro-2-propyn-1-yl)-17β-hydroxy-11β-[4-p-(cyclohexyl)phenyl]estra-4,9-dien-3-one] yielded an IC50 (MDA-MB-231 (TNBC cells)) of 40 nM, an IC50 (U87-MU (Glioma cells); Glioma cell) of 73 nM and an IC50 [1, 13] of 500 nM. It also gave an IC50 [2, 14] of 250 nM and an IC50 [3] of 22 nM.

For C#CC(F)(F)[C@]1(O)CCC2C3CCC4=CC(=O)CCC4=C3C(c3ccc(SC)cc3)C[C@@]21C (stereo partly drawn) [EC363, 17α-(1,1-difluoro-2-propyn-1-yl)-17β-hydroxy-11β-[4-p-(methylthio)phenyl]estra-4,9-dien-3-one], the IC50 (U87-MU (Glioma cells); Glioma cell) was 30 nM and the IC50 [3] was 30 nM.

Molecule C#CC(F)(F)[C@]1(O)CCC2C3CCC4=CC(=O)CCC4=C3C(c3ccc(CCCCCCC)cc3)C[C@@]21C (stereo partly drawn) [EC362, 17α-(1,1-difluoro-2-propyn-1-yl)-17β-hydroxy-11β-[4-p-(n-heptyl)phenyl]estra-4,9-dien-3-one] has an IC50 [4] of 25 nM, an IC50 [1, 13] of 50 nM and an IC50 [2, 14] of 25 nM. The IC50 [3] was 7.5 nM.
